Results reported in PubChem BioAssay (NCI).
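Method: 48-hour compound exposure of cells in 96-well plates, five concentrations, linear interpolation of endpoints. GI50 = concentration required for 50% inhibition of growth. TGI: concentration producing complete growth inhibition.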

What was measured:
Assay in all cases: growth of human tumour cells (NCI), 48 h
RPMI-8226 leukemia = system: RPMI-8226 leukemia
U251 CNS = system: U251 CNS
MOLT-4 leukemia = system: MOLT-4 leukemia
PC-3 prostate = system: PC-3 prostate
SK-OV-3 ovarian = system: SK-OV-3 ovarian
SK-MEL-28 melanoma = system: SK-MEL-28 melanoma
T-47D breast = system: T-47D breast
M14 melanoma = system: M14 melanoma
HCT-15 colon = system: HCT-15 colon
BT-549 breast = system: BT-549 breast

| Compound | GI50 (RPMI-8226 leukemia) [µM] | TGI (RPMI-8226 leukemia) [µM] | GI50 (U251 CNS) [µM] | TGI (U251 CNS) [µM] | GI50 (MOLT-4 leukemia) [µM] | TGI (MOLT-4 leukemia) [µM] | GI50 (PC-3 prostate) [µM] | TGI (PC-3 prostate) [µM] | GI50 (SK-OV-3 ovarian) [µM] | TGI (SK-OV-3 ovarian) [µM] | GI50 (SK-MEL-28 melanoma) [µM] | TGI (SK-MEL-28 melanoma) [µM] | GI50 (T-47D breast) [µM] | TGI (T-47D breast) [µM] | GI50 (M14 melanoma) [µM] | TGI (M14 melanoma) [µM] | GI50 (HCT-15 colon) [µM] | TGI (HCT-15 colon) [µM] | GI50 (BT-549 breast) [µM] | TGI (BT-549 breast) [µM] |
| --- | --- | --- | --- | --- | --- | --- | --- | --- | --- | --- | --- | --- | --- | --- | --- | --- | --- | --- | --- | --- |
| CCC(C)[C@H](NC(=O)Nc1cc(C(F)(F)F)cc(C(F)(F)F)c1)C(=O)N[C@@H](Cc1cn(C)cn1)C(=O)OC (some centres undefined) | 0.721 | 1.86 | 1.33 | 1.8 | 0.873 | 2.24 | 0.715 | 1.77 | 1.38 | 1.82 | 0.572 | 1.1 | 0.912 | 1.74 | 1.11 | 1.98 | 1.4 | 2.21 | 0.698 | 1.68 |
| O=C(Nc1cccc(O)c1)c1ccc(NC2=C(Cl)C(=O)N(Cc3ccc(Cl)cc3Cl)C2=O)cc1 | 0.749 | 2.52 | 1.76 | 3.23 | 0.383 | 2.17 | 1.75 | 4.28 | 4.6 | 14.7 | 3.41 | 10.1 | 2.01 | > 21.2 | 8.29 | > 55.9 | 2.51 | 6.13 | 5.7 | 12.2 |
| OC(COC(c1ccccc1)(c1ccccc1)c1ccccc1)C(O)CC1SCCS1 (centres undefined) |  | 34.2 |  | 62.4 |  | 68.7 |  | 31.8 |  | 48.9 |  | 48.8 |  | 58.3 |  | 84.3 |  | 73.9 |  | 44.1 |
| CC1(C)CNc2cc(NC(=O)c3cccnc3NCc3ccncc3)ccc21 | 21.9 | > 100 | 39.1 | > 100 | 23.8 | > 100 | 25.4 | > 100 | 26.5 | > 100 | 22.1 | > 100 | 17 | > 88.5 | 20.2 | 88.6 | 22.2 | > 87.7 | 25.2 | 98.2 |
| Cc1ccc(/C=N/Nc2nc(Nc3ccccc3)nc(-n3nc(C)cc3C)n2)cc1 | 3.19 | 12.9 | 4.88 | > 100 | 2.4 | 8.53 | 2.67 | 23.6 | 11.8 | > 100 | 6.12 | > 100 | 2.55 | 7.41 | 2.47 | 10.8 | 2.63 | 46.4 | 4 | 34.1 |
| CCOC(=O)c1cc2c(cc1Cl)SC(=Nc1ccccc1)N(S(=O)(=O)c1ccc(Cl)cc1)S2(=O)=O | 4.26 | 19.4 | 10.6 | 25.9 | 11.7 | 37.3 | 12.2 | 28.6 | 17.4 | 35.2 | 21.6 | 74.6 | 3.84 | 23.4 | 11.2 | 26 | 6.52 | 21.9 | 14.5 | 30.4 |
| O=C(/C=C\c1ccc([N+](=O)[O-])cc1)c1ccccc(=O)c1O |  | 4.5 |  | > 100 |  | > 21.8 |  | 9.84 |  | 17.2 |  | 3.75 |  | 23.8 |  | 6.5 |  | 4.2 |  | 6.17 |
| COC12C=C/C(=C(/C(=O)OCc3ccccn3)C(=O)CCCCCCCCC3(OC)C=C/C(=C(/C(=O)OCc4ccccn4)C(=O)CCCCCCCC1)O3)O2 | 0.371 | 1.85 | 0.386 | 1.52 | 0.301 | > 100 | 0.719 | 3.98 | 0.889 | 60.9 | 0.481 | 3.62 | 0.588 | 6.24 | 0.252 | 0.571 |  |  | 0.401 | 2.07 |
| COC(=O)[C@H](Cc1cnc[nH]1)NC(=O)[C@@H](NC(=O)Nc1cc(C(F)(F)F)cc(C(F)(F)F)c1)C(C)C | 16.1 | 38.9 |  |  | 12.5 | 32.2 | 14.5 | 28.4 | 18.5 | 32.5 | 15.7 | 29.2 | 12.4 | 28 | 16.8 | 34 | 18.2 | 36 | 16.9 | 33.3 |
| COc1ccc(-c2nc(-c3ccc(C)cc3)cn3ccnc23)cc1 | 2.89 | > 50 | 3.42 | > 50 | 22.3 | > 50 | 4.44 | > 50 | 33.5 | > 50 |  |  | > 50 | > 50 | 3.23 | > 50 | 2.56 | > 50 | 26.4 | > 50 |
